Experiments:
HL-60 [1] = assay: Effective dose to show cytotoxicity against leukemia HL-60 (TB) cell line was determined; assay type: functional; settings: Homo sapiens, read-out: ED50 (the source's name)
NCI-H322M [2] = assay: Cytotoxicity exhibited by the compound for total growth inhibition of non-small cell lung cancer NCI-H322M cell line; assay type: functional; settings: Homo sapiens
SNB-19 = assay: Concentration for 50% cell kill against CNS cancer SNB-19 cell line was determined; assay type: functional; settings: Homo sapiens, read-out: LC50 (the source's name)
U-251 [3] = assay: Effective dose to show cytotoxicity against CNS cancer U251 cell line was determined; assay type: functional; settings: Homo sapiens, read-out: ED50 (the source's name)
Malme-3M [4] = assay: Concentration for 50% cell kill against melanoma MALME-3M cell line was determined; assay type: functional; settings: Homo sapiens, read-out: LC50 (the source's name)
PC-3 [5] = assay: Concentration for 50% cell kill against prostate cancerPC-3 cell line was determined; assay type: functional; settings: Homo sapiens, read-out: LC50 (the source's name)
NCI-H23 [6] = assay: Effective dose to show cytotoxicity against non-small cell lung cancer NCI-H23 cell line was determined; assay type: functional; settings: Homo sapiens, read-out: ED50 (the source's name)
MDA-N [7] = assay: Cytotoxicity exhibited by the compound for total growth inhibition of breast cancer MDA-N cell line; assay type: functional; settings: Homo sapiens
[8] = tested on: MDA-MB-435 (Homo sapiens); assay: Cytotoxicity exhibited by the compound for total growth inhibition of breast cancer MDA-MB-435 cell line
OVCAR-8 = assay: Effective dose to show cytotoxicity against ovarian cancer OVCAR-8 cell line was determined; assay type: functional; settings: Homo sapiens, read-out: ED50 (the source's name)
HCT-116 [9] = assay: Effective dose to show cytotoxicity against colon cancer HCT116 cell line was determined; assay type: functional; settings: Homo sapiens, read-out: ED50 (the source's name)
RPMI-8226 [10] = assay: Cytotoxicity exhibited by the compound for total growth inhibition of leukemia RPMI-8226 cell line; assay type: functional; settings: Homo sapiens
MOLT-4 [11] = assay: Effective dose to show cytotoxicity against leukemia MOLT-4 cell line was determined; assay type: functional; settings: Homo sapiens, read-out: ED50 (the source's name)
U-251 [12] = assay: Cytotoxicity exhibited by the compound for total growth inhibition of CNS cancer U251 cell line; assay type: functional; settings: Homo sapiens
T47D [13] = assay: Effective dose to show cytotoxicity against breast cancer T-47D cell line was determined; assay type: functional; settings: Homo sapiens, read-out: ED50 (the source's name)
HL-60 [14] = assay: Concentration for 50% cell kill against leukemia HL-60 (TB) cell line was determined; assay type: functional; settings: Homo sapiens, read-out: LC50 (the source's name)
MDA-N [15] = assay: The compound was evaluated for cytotoxicity against MDA-N breast cancer cell line; assay type: functional; settings: Homo sapiens
Malme-3M [16] = assay: Effective dose to show cytotoxicity against melanoma MALME-3M cell line was determined; assay type: functional; settings: Homo sapiens, read-out: ED50 (the source's name)
LOX IMVI = assay: Cytotoxicity exhibited by the compound for total growth inhibition of melanoma LOX IMVI cell line; assay type: functional; settings: Homo sapiens
COLO 205 [17] = assay: Concentration for 50% cell kill against colon cancer COLO 205 cell line was determined; assay type: functional; settings: Homo sapiens, read-out: LC50 (the source's name)
MOLT-4 [18] = assay: Concentration for 50% cell kill against leukemia MOLT-4 cell line was determined; assay type: functional; settings: Homo sapiens, read-out: LC50 (the source's name)
IGROV-1 = assay: Effective dose to show cytotoxicity against ovarian cancer IGROV 1 cell line was determined; assay type: functional; settings: Homo sapiens, read-out: ED50 (the source's name)
RPMI-8226 [19] = assay: Effective dose to show cytotoxicity against leukemia RPMI-8226 cell line was determined; assay type: functional; settings: Homo sapiens, read-out: ED50 (the source's name)
NCI-H23 [20] = assay: Concentration for 50% cell kill against non-small cell lung cancer NCI-H23 cell line was determined; assay type: functional; settings: Homo sapiens, read-out: LC50 (the source's name)
PC-3 [21] = assay: Effective dose to show cytotoxicity against prostate cancer PC-3 cell line was determined; assay type: functional; settings: Homo sapiens, read-out: ED50 (the source's name)
NCI-H522 [22] = assay: Cytotoxicity exhibited by the compound for total growth inhibition of non-small cell lung cancer NCI-H522 cell line; assay type: functional; settings: Homo sapiens
RXF 393 = assay: Concentration for 50% cell kill against renal cancer RXF 393 cell line was determined; assay type: functional; settings: Homo sapiens, read-out: LC50 (the source's name)
CAKI-1 = assay: The compound was evaluated for cytotoxicity against CAKI-1 renal cancer cell line; assay type: functional; settings: Homo sapiens
COLO 205 [23] = assay: Cytotoxicity exhibited by the compound for total growth inhibition of colon cancer COLO 205 cell line; assay type: functional; settings: Homo sapiens
Malme-3M [24] = assay: Cytotoxicity exhibited by the compound for total growth inhibition of melanoma MALME-3M cell line; assay type: functional; settings: Homo sapiens
MDA-N [25] = assay: Effective dose to show cytotoxicity against breast cancer MDA-N cell line was determined; assay type: functional; settings: Homo sapiens, read-out: ED50 (the source's name)
CCRF-CEM = assay: Concentration for 50% cell kill against leukemia CCRF-CEM cell line was determined; assay type: functional; settings: Homo sapiens, read-out: LC50 (the source's name)
NCI-H322M [26] = assay: The compound was evaluated for cytotoxicity against NCI-H322M non-small cell lung cancer cell line; assay type: functional; settings: Homo sapiens
KM12 [27] = assay: Effective dose to show cytotoxicity against colon cancer KM-12 cell line was determined; assay type: functional; settings: Homo sapiens, read-out: ED50 (the source's name)
KM12 [28] = assay: Concentration for 50% cell kill against colon cancer KM-12 cell line was determined; assay type: functional; settings: Homo sapiens, read-out: LC50 (the source's name)
T47D [29] = assay: Concentration for 50% cell kill against breast cancer T-47D cell line was determined; assay type: functional; settings: Homo sapiens, read-out: LC50 (the source's name)
M14 = assay: Effective dose to show cytotoxicity against melanoma M14 cell line was determined; assay type: functional; settings: Homo sapiens, read-out: ED50 (the source's name)
OVCAR-3 [30] = assay: Cytotoxicity exhibited by the compound for total growth inhibition of ovarian cancer OVCAR-3 cell line; assay type: functional; settings: Homo sapiens
COLO 205 [31] = assay: Effective dose to show cytotoxicity against colon cancer COLO 205 cell line was determined; assay type: functional; settings: Homo sapiens, read-out: ED50 (the source's name)
K562 = assay: Effective dose to show cytotoxicity against leukemia K-562 cell line was determined; assay type: functional; settings: Homo sapiens, read-out: ED50 (the source's name)
MDA-N [32] = assay: Concentration for 50% cell kill against breast cancer MDA-N cell line was determined; assay type: functional; settings: Homo sapiens, read-out: LC50 (the source's name)
OVCAR-3 [33] = assay: Concentration for 50% cell kill against ovarian cancerOVCAR-3 cell line was determined; assay type: functional; settings: Homo sapiens, read-out: LC50 (the source's name)
KM12 [34] = assay: Cytotoxicity exhibited by the compound for total growth inhibition of colon cancer KM-12 cell line; assay type: functional; settings: Homo sapiens
NCI-H522 [35] = assay: Concentration for 50% cell kill against non-small cell lung cancer NCI-H522 cell line was determined; assay type: functional; settings: Homo sapiens, read-out: LC50 (the source's name)
[36] = tested on: MDA-MB-435 (Homo sapiens); assay: Effective dose to show cytotoxicity against breast cancer MDA-MB-435 cell line was determined; settings: read-out: ED50 (the source's name)
NCI-H23 [37] = assay: Cytotoxicity exhibited by the compound for total growth inhibition of non-small cell lung cancer NCI-H23 cell line; assay type: functional; settings: Homo sapiens
HCT-116 [38] = assay: The compound was evaluated for cytotoxicity against HCT116 colon cancer cell line; assay type: functional; settings: Homo sapiens

Cc1c2ccncc2c(C)c2c1[nH]c1ccc(CO)cc12
EC50 (HL-60 [1]): 20 nM
TGI (NCI-H322M [2]): 11500 nM
CC50 (SNB-19): 56200 nM
EC50 (U-251 [3]): 280 nM
CC50 (Malme-3M [4]): 820 nM
CC50 (PC-3 [5]): 23300 nM
EC50 (NCI-H23 [6]): 680 nM
TGI (MDA-N [7]): 1690 nM
TGI [8]: 1610 nM
EC50 (OVCAR-8): 420 nM
EC50 (HCT-116 [9]): 50 nM
TGI (RPMI-8226 [10]): 220 nM
EC50 (MOLT-4 [11]): 10 nM
TGI (U-251 [12]): > 100000 nM
EC50 (T47D [13]): 1420 nM
CC50 (HL-60 [14]): 900 nM
GI50 (MDA-N [15]): 350 nM
EC50 (Malme-3M [16]): 640 nM
TGI (LOX IMVI): 3030 nM
CC50 (COLO 205 [17]): 10200 nM
CC50 (MOLT-4 [18]): 4090 nM
EC50 (IGROV-1): 180 nM
EC50 (RPMI-8226 [19]): 30 nM
CC50 (NCI-H23 [20]): 79000 nM
EC50 (PC-3 [21]): 450 nM
TGI (NCI-H522 [22]): 2950 nM
CC50 (RXF 393): 9430 nM
GI50 (CAKI-1): 370 nM
TGI (COLO 205 [23]): 2200 nM
TGI (Malme-3M [24]): 7350 nM
EC50 (MDA-N [25]): 350 nM
CC50 (CCRF-CEM): > 100000 nM
GI50 (NCI-H322M [26]): 620 nM
EC50 (KM12 [27]): 160 nM
CC50 (KM12 [28]): 7380 nM
CC50 (T47D [29]): 78200 nM
EC50 (M14): 600 nM
TGI (OVCAR-3 [30]): 52100 nM
EC50 (COLO 205 [31]): 240 nM
EC50 (K562): 30 nM
CC50 (MDA-N [32]): 4330 nM
CC50 (OVCAR-3 [33]): 46200 nM
TGI (KM12 [34]): 1520 nM
CC50 (NCI-H522 [35]): > 100000 nM
EC50 [36]: 240 nM
TGI (NCI-H23 [37]): 9440 nM
GI50 (HCT-116 [38]): 50 nM

— ChEMBL document CHEMBL1129835, “Selective cytotoxicity of certain 9-substituted ellipticines for leukemia cells in a variety of leukemia cell cultures” (1997)
